In paper PMC8424217 (The Journal of Biological Chemistry, 2021):
Peptide text beside a SMILES is read from it. * marks the point of attachment. Palmitoyl = CCCCCCCCCCCCCCCC(=O)*

Tests used:
hUT [1] = biological target: T1, hUT (Homo sapiens, UniProt Q9UKP6); assay: ERK1/2 phosphorylation, western blot, CHO-hUT cells; assay type: cell-based; design: expressed in transfected cells; host or cells: CHO-K1 cells stably expressing hUT (gift from H. Vaudry and C. Dubessy, University of Rouen); details: for EC50 / effect of AG1478 (EGFR inhibitor) on ERK1/2 phosphorylation induced by the peptide / effect of PTX on ERK1/2 phosphorylation induced by the peptide / effect of U73122 (PLC inhibitor) on ERK1/2 phosphorylation induced by the peptide / time of second peak of ERK1/2 phosphorylation / time of maximal ERK1/2 phosphorylation: CHO-hUT; for EC50: 5 min stimulation, mean ± SEM of at least three independent experiments in triplicate, read-out: ERK1/2 phosphorylation pEC50 (converted); for effect of AG1478 (EGFR inhibitor) on ERK1/2 phosphorylation induced by the peptide: AG1478 5 μM 30 min pretreatment; for effect of AG1478 (EGFR inhibitor) on ERK1/2 phosphorylation induced by the peptide / effect of PTX on ERK1/2 phosphorylation induced by the peptide / effect of U73122 (PLC inhibitor) on ERK1/2 phosphorylation induced by the peptide: pepducin 10^−6 M, 5 min, n = 3; for effect of PTX on ERK1/2 phosphorylation induced by the peptide: PTX 200 ng/ml 24 h pretreatment; for effect of U73122 (PLC inhibitor) on ERK1/2 phosphorylation induced by the peptide: U73122 1 μM 60 min pretreatment; for time of second peak of ERK1/2 phosphorylation / time of maximal ERK1/2 phosphorylation: pepducins 10^−6 M; for time of maximal ERK1/2 phosphorylation: hUII 10^−7 M
T1 sequence (Q9UKP6 1-389): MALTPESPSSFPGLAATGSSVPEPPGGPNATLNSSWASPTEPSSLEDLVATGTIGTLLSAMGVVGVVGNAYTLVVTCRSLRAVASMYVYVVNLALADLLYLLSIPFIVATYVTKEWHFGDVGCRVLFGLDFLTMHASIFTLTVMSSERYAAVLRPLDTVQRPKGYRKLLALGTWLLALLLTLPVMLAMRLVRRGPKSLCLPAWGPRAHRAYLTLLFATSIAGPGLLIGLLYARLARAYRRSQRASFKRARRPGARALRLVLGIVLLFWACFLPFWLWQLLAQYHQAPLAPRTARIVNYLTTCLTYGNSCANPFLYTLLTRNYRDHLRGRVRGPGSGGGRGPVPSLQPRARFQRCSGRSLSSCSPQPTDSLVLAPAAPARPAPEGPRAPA
Procedure: Figure 3 IP1production (A and B) and ERK1/2phosphorylation (C and D) kinetics and concentration dependence following hUT activation. IP1 production was evaluated using the IP-One terbium immunoassay kits while ERK1/2 phosphorylation was measured by western blot in CHO-K1 cells stably expressing hUT. […] Each curve represents the mean ± SEM of at least three independent experiments performed in triplicate.
ERK1/2 phosphorylation was measured by western blot. […] Quantification of ERK1/2 phosphorylation level was performed in three independent experiments done in triplicate (mean ± SEM, n = 3, ∗∗∗p < 0.001, ∗∗p < 0.01, or ∗p < 0.05, versus control).
CHO cells stably expressing hUT (CHO-hUT; gift from Drs H. Vaudry et C. Dubessy, University of Rouen, France) were grown in 12-well plates to 70–80% confluence and starved for 6 h in a serum-free medium. […] Briefly, HEK 293-hUT cells, grown in 12-well plates to 70–80% confluence, were starved for 6 h in a serum-free medium. […] Cells were then rinsed twice with ice-cold PBS and homogenized in 0.5 ml of lysis buffer (20 mM Tris, 150 mM NaCl, 1 mM EDTA, 1 mM EGTA, 1% Triton X-100, 2.5 mM sodium pyrophosphate, 1 mM β-glycerolphosphate, 1 mM Na3VO4, 1 μg mL^−1 leupeptin, 1 mM PMSF, 1 mM DTT) at 4 °C. Insoluble material was removed by centrifugation at 12,000 rpm for 30 min. The extract was treated with Laemmli sample buffer and heated for 5 min at 95 °C. Aliquots were assayed for protein concentration (BioRad) and an equal amount of total protein was subjected to 12% SDS–PAGE, followed by transfer to a nitrocellulose membrane. The membrane was blocked and then probed with primary antibody (phospho-p44/42 MAPK) at the optimal dilution (1/2000) with gentle agitation overnight at 4 °C. After washing with TTBS, membranes were then incubated with secondary antibody, conjugated with horseradish peroxidase (anti-rabbit HRP) diluted in TBST containing 5% skim milk (w/v) for 1 h at room temperature. Immunoreactive species were visualized by enhanced chemiluminescence using X-ray film and Thermo Scientific SuperSignal chemiluminescent substrates according to the manufacturer's instructions. Films were digitized and the intensity of the immunoreactive bands determined using Quantity One software from Bio-Rad.

hUT [2] = biological target: T1, hUT; assay: EGFR transactivation (EGFR-GFP internalization, confocal microscopy), HEK 293-hUT cells; assay type: cell-based; design: expressed in transfected cells; details: 30 min; for EGFR internalization: 10^−6 M; for EGFR transactivation after YM254890 (Gq inhibitor): YM254890 100 nM 1 h pretreatment, peptide 10^−6 M
Procedure: EGFR internalization, following hUT stimulation with various ligands for 30 min, was visualized using confocal microscopy. The images shown are from representative experiments repeated at least three times.
HEK 293 and HEK 293-hUT cells, transiently transfected with cDNA encoding fluorescently labeled EGFR (EGFR-GFP) (2 μg), were plated onto 35-mm glass-bottomed culture dishes (MatTek Corp). Following stimulation, cells were washed once with PBS and fixed in 4% paraformaldehyde for 15 min. To study the involvement of Gq in EGFR internalization, cells were treated with YM254890 (100 nM) for 1h prior peptide treatments. […] EGFR-GFP internalization was visualized using a combination of excitation (488 nm) and emission filters (499 and 520 nm).

rat thoracic aorta rings = biological target: T2, rat thoracic aorta rings (Rattus norvegicus, UniProt P49684); assay: Rat aortic ring contraction (agonist); details: for contraction at 10 μM: n = 5; for contraction pEC50: n = 22 (hUII, URP), n = 5 (pepducins)
T2 sequence (P49684 1-386): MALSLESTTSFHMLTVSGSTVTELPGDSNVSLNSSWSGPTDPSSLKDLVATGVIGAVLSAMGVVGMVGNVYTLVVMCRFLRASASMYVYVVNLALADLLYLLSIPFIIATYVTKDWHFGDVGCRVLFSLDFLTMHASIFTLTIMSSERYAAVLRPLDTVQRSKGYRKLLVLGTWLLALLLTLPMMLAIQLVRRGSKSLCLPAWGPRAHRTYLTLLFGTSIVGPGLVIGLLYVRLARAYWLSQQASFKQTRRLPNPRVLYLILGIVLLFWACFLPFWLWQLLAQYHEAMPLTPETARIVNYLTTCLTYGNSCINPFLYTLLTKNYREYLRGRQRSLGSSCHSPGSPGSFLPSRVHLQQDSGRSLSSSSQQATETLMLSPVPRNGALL
Procedure: Each replicate (n) was conducted on tissue obtained from at least three different animals. Data represent mean ± SEM.
Adult male Sprague-Dawley rats (Charles-River) weighing 250–300 g were housed in cages under controlled illumination (12:12 h light–dark cycle), humidity, and temperature (21–23 °C) and had free access to tap water and rat chow. All experimental procedures were performed in accordance with regulations and ethical guidelines from the Canadian Council for the Care of Laboratory Animals and received approvals of the institutional animal care and use committee of the Institut National de la Recherche Scientifique—Centre Armand-Frappier Santé Biotechnologie. As previously described ([17], [18]), the thoracic aorta was cleared of surrounding tissue and then excised from the aortic arch to the diaphragm. Conjunctive tissues were next removed from the thoracic aorta and the vessels were divided into five rings of 4 mm. The endothelium of each aortic ring was removed by gently rubbing the vessel intimal surface. Aortic rings were then placed in a 5 ml organ bath filled with oxygenated normal Krebs–Henseleit buffer. Eighty microliters of a 2.5 M potassium chloride solution (40 mM final concentration) was used to evaluate maximal contractile responses of each vessel. […] Cumulative concentration–response curves to synthetic peptides were obtained by increasing the concentration of each peptide in the remaining organ chambers (10^−11–10^−5 M).

[3] = percentage of contraction induced by 40 mM KCl

| Emax (rat thoracic aorta rings; percentage of contraction induced by 40 mM KCl, mean ± SEM, n = 22) | Structure (SMILES) | Emax (hUT [1]) | EC50 (hUT [1]) | effect of AG1478 (EGFR inhibitor) on ERK1/2 phosphorylation induced by the peptide (hUT [1]) | effect of PTX on ERK1/2 phosphorylation induced by the peptide (hUT [1]) | effect of U73122 (PLC inhibitor) on ERK1/2 phosphorylation induced by the peptide (hUT [1]) | time of second peak of ERK1/2 phosphorylation (hUT [1]) | time of maximal ERK1/2 phosphorylation (hUT [1]) | EGFR internalization (hUT [2]) | EGFR transactivation after YM254890 (Gq inhibitor) (hUT [2]) | contraction at 10 μM (rat thoracic aorta rings; [3]) | contraction pEC50 (rat thoracic aorta rings; mean ± SEM) |
| --- | --- | --- | --- | --- | --- | --- | --- | --- | --- | --- | --- | --- |
|  | CCCCCCCCCCCCCCCC(=O)N[C@@H](Cc1c[nH]c2ccccc12)C(=O)N[C@@H](CC(C)C)C(=O)N[C@@H](CO)C(=O)N[C@@H](CCC(N)=O)C(=O)N[C@@H](CCCNC(=N)N)C(=O)N[C@@H](C)C(=O)N[C@@H](CO)C(=O)N[C@@H](Cc1ccccc1)C(=O)N[C@@H](CCCCN)C(=O)N[C@@H](CCCNC(=N)N)C(=O)N[C@@H](C)C(=O)N[C@@H](CCCNC(=N)N)C(=O)N[C@@H](CCCNC(=N)N)C(N)=O [[Trp^1, Leu^2]hUT-Pep3] (Palmitoyl-WLSQRASFKRARR-NH2) | 56 ± 2% | 200 nM | significantly reduced the ability of both hUT-derived pepducins to induce ERK1/2 phosphorylation | completely prevented | completely prevented | 60 min | 5 min | significant internalization of EGFR-GFP | almost completely abolished | 16% @ 10 μM | <5 |
| 102 ± 3% | CC(C)[C@H](NC(=O)[C@@H]1CSSC[C@H](NC(=O)[C@H](CC(=O)O)NC(=O)[C@@H]2CCCN2C(=O)[C@@H](NC(=O)[C@@H](N)CCC(=O)O)[C@@H](C)O)C(=O)N[C@@H](Cc2ccccc2)C(=O)N[C@@H](Cc2c[nH]c3ccccc23)C(=O)N[C@@H](CCCCN)C(=O)N[C@@H](Cc2ccc(O)cc2)C(=O)N1)C(=O)O [hUII, urotensin II, reference compound] | 102 ± 2% |  |  | substantially reduced, or even suppressed |  |  | 5 min | resulted in EGFR internalization |  |  | 8.64 ± 0.09 |
|  | CCCCCCCCCCCCCCCC(=O)N[C@@H](CCCNC(=N)N)C(=O)N1CCC[C@H]1C(=O)N[C@@H](CC(C)C)C(=O)N[C@@H](CC(=O)O)C(=O)N[C@H](C(=O)N[C@H](C(=O)N[C@@H](CCC(N)=O)C(=O)N[C@@H](CCCNC(=N)N)C(=O)N1CCC[C@H]1C(=O)N[C@@H](CCCCN)C(=O)NCC(=O)N[C@@H](Cc1ccc(O)cc1)C(N)=O)C(C)C)[C@@H](C)O [hUT-Pep2] (Palmitoyl-RPLDTVQRPKGY-NH2) | 34 ± 2% | 55 nM | significantly reduced the ability of both hUT-derived pepducins to induce ERK1/2 phosphorylation | unaffected by PTX treatment | only partially affected by the PLC inhibitor | a similar pattern was not observed for hUT-Pep2 | 5 min | significant internalization of EGFR-GFP | almost completely abolished | 7% @ 10 μM | <5 |
